# In patent publication US9006221B2, “Method of modulating ship activity” (H. Lee Moffitt Cancer Center and Reserach Institute, Inc., priority 2008, dated 2015):
# Assays:
# SHIP1 = target: T1, SHIP1 (Mus musculus, UniProt Q9ES52); assay: Fluorescence polarization (FP) assay of SHIP1 enzymatic activity; assay type: biochemical; conditions: confirmatory FP assay of screening hits
# T1 construct: The asterisk in lanes 1 and 3 indicates the ˜145 kD full-length SHIP protein; His tag (C); made in house; host or cells: E. coli Rosetta-Gami 2 (DE3) pLys
# T1 sequence (Q9ES52 1-1191): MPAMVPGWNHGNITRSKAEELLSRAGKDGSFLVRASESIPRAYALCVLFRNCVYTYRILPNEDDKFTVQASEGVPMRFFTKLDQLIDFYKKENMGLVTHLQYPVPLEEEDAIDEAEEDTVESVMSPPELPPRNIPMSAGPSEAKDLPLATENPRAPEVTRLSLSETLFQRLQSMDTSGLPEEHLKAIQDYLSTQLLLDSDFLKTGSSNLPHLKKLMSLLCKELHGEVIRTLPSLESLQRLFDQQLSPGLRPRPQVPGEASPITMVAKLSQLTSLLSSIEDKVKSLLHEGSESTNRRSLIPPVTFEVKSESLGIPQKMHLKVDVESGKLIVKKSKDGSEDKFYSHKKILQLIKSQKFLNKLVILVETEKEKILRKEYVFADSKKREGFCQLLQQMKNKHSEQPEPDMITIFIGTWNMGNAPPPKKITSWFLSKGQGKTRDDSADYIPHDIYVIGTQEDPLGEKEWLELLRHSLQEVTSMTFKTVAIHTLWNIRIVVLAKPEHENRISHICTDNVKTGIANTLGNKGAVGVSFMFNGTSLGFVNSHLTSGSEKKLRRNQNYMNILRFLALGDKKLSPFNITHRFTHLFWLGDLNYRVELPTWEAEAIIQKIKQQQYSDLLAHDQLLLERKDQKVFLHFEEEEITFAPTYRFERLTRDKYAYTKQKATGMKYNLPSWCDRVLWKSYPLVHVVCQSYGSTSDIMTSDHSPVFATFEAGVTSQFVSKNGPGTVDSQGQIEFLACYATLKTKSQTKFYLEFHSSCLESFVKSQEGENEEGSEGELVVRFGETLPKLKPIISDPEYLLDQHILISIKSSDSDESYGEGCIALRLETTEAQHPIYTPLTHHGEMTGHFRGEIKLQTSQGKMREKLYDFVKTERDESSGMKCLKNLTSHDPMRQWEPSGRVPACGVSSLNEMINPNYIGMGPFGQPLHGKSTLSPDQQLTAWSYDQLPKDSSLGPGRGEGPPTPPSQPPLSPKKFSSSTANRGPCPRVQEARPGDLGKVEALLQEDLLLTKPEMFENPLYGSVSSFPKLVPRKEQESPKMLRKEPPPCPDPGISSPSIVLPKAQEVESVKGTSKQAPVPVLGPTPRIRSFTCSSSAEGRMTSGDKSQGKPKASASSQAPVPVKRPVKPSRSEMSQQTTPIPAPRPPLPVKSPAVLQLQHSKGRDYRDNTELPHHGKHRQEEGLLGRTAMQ
# Text: SHIP is detectable in this expression system as a ˜145 kD protein (FIG. 1a, lane 1). Because of an in-frame Histidine (His) tag on the COOH terminus of SHIP, it can then be purified from E. coli lysates by FPLC over a Ni-containing resin. (FIG. 1a, lane 3). Purified SHIP was routinely obtained in sufficient quantities, using this E. coli expression system and FPLC purification, to conduct high-throughput screening (HTS) of chemical libraries for compounds that inhibit SHIP activity. However, prior to screening, a fluorescence polarization (FP) assay that detects SHIP activity in either a 96- or […] format, seen in FIG. 1b, screen was established. SHIP generates PI(3,4)P2 from its PI(3,4,5)P3 substrate. In the FP assay enzymatic generation of PI(3,4)P2 by SHIP reduces polarized fluorescence (mP) because the fluorescent PI(3,4)P2 “probe” is displaced from a detector protein that binds specifically to PI(3,4)P2. The FP assay is highly specific for SHIP activity in these lysates. No significant 5′-inositol phosphatase activity was detected in E. coli lysates harboring an ‘empty’ pet24b expression vector insert when FPLC fractions where SHIP typically elutes with the imidazole step gradient are analyzed in the FP assay (FIG. 1c).
# After preparing purified SHIP and establishing the FP assay, two different chemical libraries, comprising a total of ˜2100 different chemical compounds, were screened. Seventeen compounds capable of inhibiting SHIP activity at μM concentrations were identified in this screen. The compounds were verified for SHIP activity inhibition by repeating the FP assay with the compounds obtained from their respective wells in the replicates of the masterplates for these libraries FIGS. 2-6).
# A fluorescence polarization (FP) assay to detect and quantify SHIP2 activity has been previously described [Drees B E, et al., Comb Chem High Throughput Screen (2003) 6(4):321-330], but no assay has been described for the detection of SHIP1. A fluorescence polarization (FP) assay was developed to detect the activity of recombinant SHIP1 (see FIGS. 15a and b) and the FP assay was utilized as a rapid screen to detect compounds in chemical libraries that have inhibitory activity against SHIP1. This screen identified 3α-aminocholestane as a potent inhibitor of SHIP1 enzymatic activity (FIG. 15c). […] This high degree of selectivity could be important, since loss of PTEN function promotes malignancy in parenchymal and hematopoietic tissues. [Yuan T L & Cantley L C Oncogene (2008) 27(41):5497-5510; Zhang J, et al., Nature (2006) 441(7092):518-522; Yilmaz O H, et al., Nature (2006) 441(7092):475-482]
# Assay of SHIP1 enzymatic activity: A fluorescent polarization (FP) assay that detects the 5′-inositol phosphatase activity of SHIP1 was developed based on a previously established protocol [Drees B E, et al., Comb Chem High Throughput Screen (2003) 6(4):321-330] and was obtained from Echelon Biosciences (Salt Lake City, USA). Modifications of the protocol included the application of SHIP1 in the assay and an increase in the concentration of MgCl2 to […] to maximize the activity of SHIP1 in this assay. Each enzymatic reaction was performed in a 96 well working plate and added in the following order and concentration: Recombinant SHIP1 (0.1 μg) in PBS+20 mM MgCl2, 100 μM of each individual compound from the NCI Diversity Set and then PI(3,4,5)P3 substrate diluted 1:10 in H2O. The enzymatic reaction was incubated for 30 min at room temperature. The detector, reaction mixture and probe were then combined according to the SHIP2 protocol. Malachite Green Phosphatase Assay Kit was obtained from Echelon Biosciences (Salt Lake City, USA). Assays for SHIP2 were performed according to the manufacturer's protocol. The concentration of SHIP1 and SHIP2 per reaction mixture was […]. PTEN was used at the concentration recommended by the manufacturer.
# [1] = system: priming of allogeneic T cell responses by C57Bl6/J splenocytes; assay: One-way mixed leukocyte reaction (MLR), stimulator splenocytes treated in vitro; assay type: cell-based, mouse; conditions: splenocytes cultured with compound 72 hr, added at 0, 24 and 48 hr
# Experimental: Mean proliferation of 100K BALB/C responders as measured by ^3H-Thymidine uptake after exposure to 200K irradiated BL6 stimulators that were treated with the indicated compound, 1×DMSO or 1× EtOH prior to initiation of the mixed leukocyte reaction (MLR). 1×DMSO serves as the allogeneic MLR positive control for all compounds with the exception of HLM85321 for which 1× EtOH is the positive control. [*p<0.05, **p<0.01].
# Spleen cells and lymphe node LN cells are normally robust stimulators of allogeneic T cell responses in the one-way mixed leukocyte reaction (MLR) assay, but they are very poor stimulators when obtained from mice with germline or induced SHIP-deficiency. […]
# Mixed leukocyte reactions (MLR): Following RBC lysis, irradiated (2000 Rads) BL6 splenocytes (stimulators) at 8×10^5 cells/well were combined with BALB/c splenocytes (responders) at 4×10^5 cells/well in a one-way MLR assay. […] Incorporated [3H]thymidine was quantitated using a Packard TopCount NXT. Specific [3H]thymidine incorporation into genomic DNA was calculated as the average of the mean (±SEM) of sextuplicate wells. […]
SHIP inhibitory activity in FP assay (SHIP1),Compound,ability of splenocytes to prime allogeneic T cell responses by BALB/C responders (3H-thymidine uptake) [1]
SHIP inhibitory activity,O=C1OC2(c3ccc(O)cc3Oc3cc(O)ccc32)c2c1c(-c1ccccc1)c(-c1ccccc1)c(-c1ccccc1)c2-c1ccccc1 [NSC 119886],
SHIP inhibitory activity,CCOC(=O)c1c(C)c(C)n2c1NC(=O)C2 [NSC 624983],
,"Cc1ccc(C)c(/C(=N/N=C(N)N)C2CC2)c1.Cl [NSC75513, 2-[(E)-[cyclopropyl-(2,5-dimethylphenyl)methylidene]amino]guanidine chloride]",significantly inhibited
SHIP inhibitory activity,O=C1CN2CCN(CC2)CC(=O)Nc2ccc(cc2)S(=O)(=O)c2ccc(cc2)NC(=O)CN2CCN(CC2)CC(=O)Nc2ccc(cc2)S(=O)(=O)c2ccc(cc2)N1 [NSC 36806],
